Patent US7879914B2, “Methods for treating viral infections using polyamine analogs” (Pathlogica LLC, priority 2005, dated 2011)
Entries after “also recorded” stand apart in the source; their conditions may differ. Where two headings read alike, the source gives them in different places.

What was measured:
[1] = system: HIV DNA associated with CD14 cells; test: HIV DNA in isolated CD14 cells after ex vivo drug exposure, quantitative DNA PCR; format: cell-based
Experimental: Blood from patients with advanced HIV disease was Percol gradient separated into peripheral blood mononuclear cells (PBMCs) and 5 million cells from each specimen were exposed to a 1 μM concentration of MGBG or control saline for five days. […] After the five day incubation, CD14 immunomagnetic separation with a Miltenyi separation system was performed. Separated CD14 cells from treated and untreated control specimens were evaluated for the level of HIV DNA in each specimen. C-jun, single copy DNA controls were utilized in each specimen to provide the HIV DNA/genomic equivalent values as determined by quantitative DNA PCR analysis as described in Mack, K. D., et al. JAIDS (2003) 33: 308-20. […]
Blood from three patients with advanced HIV disease was Percol gradient separated into peripheral blood mononuclear cells (PBMC's) and 5 million cells from each specimen were exposed to a 10 micromolar concentration of the polyamine analog CG47 or control saline for 5 days. […] Separated CD14 cells from treated and untreated control specimens were evaluated for the level of HIV DNA in each specimen. C-jun, single copy DNA controls were utilized in each specimen to provide the HIV DNA/genomic equivalent values as determined by quantitative DNA PCR analysis as described in Mack et al. (JAIDS). […]

[2] = system: CD14/CD16+ blood macrophages from HIV positive patients; test: Susceptibility assay: killing of CD14/CD16+ blood macrophages from HIV patients; format: cell-based; conditions: for EC50: Homo sapiens, Macrophage, advanced HIV disease, read-out: Mean ED50
Experimental: The following procedures/protocols were used in some of the examples that follow. All steps were performed in a biological safety cabinet using Universal Precautions for handling human blood samples and standard aseptic techniques.
Blood was drawn in heparinized tubes (green top Vacutainer tubes from Becton-Dickson) and Percol gradient separated into peripheral blood mononuclear cells (PBMCs), according to the following procedure. Aliquots of no more than 25 mL whole blood were transferred into clean, sterile, prelabeled 50 mL conical tubes. Using a sterile 25 mL pipet, equal volume of PBS (Mg^+2/Ca^+2 free) was added to the whole blood and the tubes were inverted 2 or 3 times. […] (For example: 10 mL whole blood +10 mL PBS.)
The diluted blood was slowly and carefully layered over the sterile Percol in amounts of 15-20 mL by holding the pipet at a 45 degree angle, relative to the Percol tube, and slowly dripping the diluted blood down the side of the tube. The resulting mixture was centrifuged at 2100 RPM for 30 minutes at 25° C. The buffy coat (i.e., the white layer between the yellow plasma on top and clear Percol solution below) so obtained was then slowly aspirated, taking care not to aspirate the Percol. The buffy coat was resuspended in sterile PBS (Mg^+2/Ca^+2 free) and the volume was brought up to 50 mL. The mixture was gently mixed by slowly pipetting up and down 3 times and the cell suspension was centrifuged at 1500 RPM for 10 minutes at 25° C. The supernatant was discarded and the bottom of the tube gently tapped to dislodge the cell pellet.
The PBMC for the susceptibility assays was prepared in accordance with the following procedures. A cell culture medium was prepared by mixing RPMI+10% FBS+1% sodium pyruvate and filter sterilized using a filter unit with 0.22 micron pore size. The cell pellet was then resuspended in 3 ml of the cell culture medium. The suspension was gently mixed by slowly pipetting up and down 3 times. The cells were counted using a hemacytometer and the cell density was adjusted to 1×10^6 cells/mL in the cell culture medium, followed by mixing by slowly pipetting up and down 3 times. The cells were incubated in a 50 mL sterile polypropylene tube, at 37° C. and 5% CO2 for 1-2 days. The cap was loosened and the tubes were tipped to 30-45 degrees relative to the tray surface. A styrofoam tube rack was used to hold the tubes.
The MGBG drug was prepared in accordance with the following procedures. A primary stock of MGBG was prepared by weighing out enough MGBG to make a 1 molar (M) solution and dissolved in sterile PBS (Mg^+2/Ca^+2 free). The solution was vortexed until all of the MGBG had dissolved. A secondary stock (0.01 M) was prepared from a 1/100 dilution of the primary stock and filter sterilized by passing the solution through a 0.22 micron filter. A working stock (0.001 M or 1,000 microMolar) was prepared from a 1/10 dilution of the secondary stock. The CG47 drug was prepared by an identical procedure.
Drug doses for the susceptibility assays were prepared in accordance with the following procedures. Drug dilutions were prepared at 10-fold higher concentrations than the final desired concentrations. For example a 100 microMolar drug solution was made for a desired final concentration of 10 microMolar. The drugs were diluted an additional 1/10 upon addition to the cell suspension (e.g., 0.1 mL drug +0.9 mL cell suspension). The drug doses for the susceptibility assays were prepared right before use in cell culture media.
Susceptibility assays were conducted in accordance with the following procedures. The MGBG drug as added 1-2 days after PBMC was separated from whole blood. […]

[3] = system: CD16+ monocytes; test: Killing of CD16+ monocytes by polyamine biosynthesis inhibitors (Example 6); format: cell-based, human; conditions: for comparison of effectiveness of both PBIs: FIG. 6, 10 μM, five days
Experimental: Mononuclear cells were isolated from individuals with HIV infection, uninfected individuals or a patient with ALS and incubated in the absence or presence of increasing concentrations of the PBIs, MGBG (PA-001) and CG47. After five days in culture under non-adherent conditions cells were isolated stained with antibodies to CD14+ and CD16+ and counted by flow cytometry using a FACSCAN (BD-biosciences). The fraction of CD14+ monocytes that expressed CD16 was determined and compared to levels seen in the absence of drug.
Those samples that were relatively resistant to PBIs required 100 μM or more of drug to achieve similar levels of killing. […] Overall 65% to 80% of samples from individuals with HAND were sensitive (>70% killing with 10 μM PBI or less) to PBIs.
The overall results with mononuclear cells from HIV infected individuals, ALS patients, and healthy controls are shown in FIG. 6. […] The number of mononuclear cell samples evaluated in each category were as follows: ALS with PA-001 (MGBG)=6, and with CG47=28. Drug resistant HIV with PA-001=22, and with CG47=48. HAD with PA-001=9, and with CG47=5. Healthy with PA-001=24, and with CG47=15.

[4] = system: CD14+ CD16+ monocytes; test: In vitro killing of cultured rhesus macaque monocytes; format: cell-based
Experimental: Dose response experiments with MGBG were performed to assess its ability to kill CD14+ CD16+ monocytes in nonadherent PBMC cultures.

Compound	reduction in HIV DNA associated with CD14 cells (average) ([1]; 10 micromolar, 5 days, three blood specimens)	killing of the CD14/CD16 blood macrophage population ([2]; 10 micromolar, 5 days, PBMCs of three patients with advanced HIV disease)	sensitivity of CD14/CD16+ macrophages from the HIV patient ([2]; FIG. 4, ex vivo)	EC50 ([2]; CG47, mean of 13 patients)	changes in lymphocyte levels ([3]; 10 μM or less)	comparison of effectiveness of both PBIs [3]	reduction in HIV DNA associated with CD14 cells (average) ([1]; 1 μM, five days)	killing of CD14/16+ cells that contain HIV DNA ([2]; 1 μM)	killing of the CD14/CD16 blood macrophage population ([2]; 1 μM, five days, PBMCs of patients with advanced HIV disease)	killing of HIV infected macrophages, dose dependence ([2]; HIV positive patients, FIG. 1)	killing of HIV-infected macrophages from HAD patients ([2]; HIV-associated dementia (HAD) patients, compared with HIV positive)	EC50 ([2]; MGBG, mean of 10 patients)	activated monocytes killed ([4]; 10 μM, five-day assay, monkey n=4)	decrease of CD14+ CD16+ monocytes, dose dependence ([4]; nonadherent PBMC cultures, five days)
CCNCCCNC/C=C\CNCCCNCC.Cl.Cl.Cl.Cl [CG47, N,N′-bis(3-ethylaminopropyl)-cis-but-2-ene-1,4-diamine tetrahydrochloride]	> 90%	> 80%	extremely sensitive	3500 nM	little or no changes	approximately equivalently effective								
CC(/C=N/NC(=N)N)=N\NC(=N)N [MGBG]						approximately equivalently effective	> 99%	Complete killing; also recorded: near quantitative	> 80%	dose-dependent	nearly as effective	465 nM	80%	dose-dependent decrease
